Test results: ChEMBL document CHEMBL2074479, “Organic anion transporting polypeptides expressed in liver and brain mediate uptake of microcystin” (Toxicol Appl Pharmacol, 2005)
Numbered stars: 1 amine (or outer) side, 2 acyl side, 3 side chain; on linkers, the order of the positions; unused ones are H or OH. Bridge positions count the residues as written; N and C are the ends. Square brackets hold non-standard residues; d marks the D form. Peptide text beside a SMILES is read from it. Adda = CO[C@@H](Cc1ccccc1)[C@@H](C)/C=C(C)/C=C/[C@H](N[*:1])[C@H](C)C(=O)[*:2]; dAsp(3S-Me) = C[C@H](C(=O)[*:3])[C@@H](N[*:1])C(=O)[*:2]; d(γGlu) = O=C(O)[C@@H](CCC(=O)[*:2])N[*:1]; NMeDha = C=C(NC)C(=O)O

How the values were obtained:
[1] = target: T1, Solute carrier organic anion transporter family member 1A2 (OATP1A2) (Homo sapiens, UniProt P46721); assay: (§1) TP_TRANSPORTER: uptake in Xenopus laevis oocytes; type: functional, cell-based, Oocyte
T1 sequence (P46721 whole entry): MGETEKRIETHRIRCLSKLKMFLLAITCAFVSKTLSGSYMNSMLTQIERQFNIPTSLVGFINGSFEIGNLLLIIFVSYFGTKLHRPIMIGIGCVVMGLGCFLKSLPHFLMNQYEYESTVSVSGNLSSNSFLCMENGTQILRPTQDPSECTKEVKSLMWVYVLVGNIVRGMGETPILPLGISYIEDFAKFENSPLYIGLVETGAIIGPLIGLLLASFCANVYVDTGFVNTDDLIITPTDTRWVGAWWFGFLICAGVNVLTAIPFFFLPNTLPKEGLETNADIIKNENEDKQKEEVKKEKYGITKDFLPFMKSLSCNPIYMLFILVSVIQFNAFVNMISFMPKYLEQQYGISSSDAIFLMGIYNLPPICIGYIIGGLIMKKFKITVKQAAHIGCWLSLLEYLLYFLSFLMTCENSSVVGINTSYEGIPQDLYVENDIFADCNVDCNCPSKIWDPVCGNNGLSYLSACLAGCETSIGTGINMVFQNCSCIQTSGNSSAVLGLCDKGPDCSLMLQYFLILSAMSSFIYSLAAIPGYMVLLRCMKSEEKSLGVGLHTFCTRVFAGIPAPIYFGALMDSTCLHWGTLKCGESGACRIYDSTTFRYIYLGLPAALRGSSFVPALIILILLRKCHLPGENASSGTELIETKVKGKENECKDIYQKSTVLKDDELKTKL

[2] = target: T2, Solute carrier organic anion transporter family member 1B1 (OATP1B1) (Homo sapiens, UniProt Q9Y6L6); assay: as §1; type: functional, cell-based, Oocyte
T2 sequence (Q9Y6L6 whole entry): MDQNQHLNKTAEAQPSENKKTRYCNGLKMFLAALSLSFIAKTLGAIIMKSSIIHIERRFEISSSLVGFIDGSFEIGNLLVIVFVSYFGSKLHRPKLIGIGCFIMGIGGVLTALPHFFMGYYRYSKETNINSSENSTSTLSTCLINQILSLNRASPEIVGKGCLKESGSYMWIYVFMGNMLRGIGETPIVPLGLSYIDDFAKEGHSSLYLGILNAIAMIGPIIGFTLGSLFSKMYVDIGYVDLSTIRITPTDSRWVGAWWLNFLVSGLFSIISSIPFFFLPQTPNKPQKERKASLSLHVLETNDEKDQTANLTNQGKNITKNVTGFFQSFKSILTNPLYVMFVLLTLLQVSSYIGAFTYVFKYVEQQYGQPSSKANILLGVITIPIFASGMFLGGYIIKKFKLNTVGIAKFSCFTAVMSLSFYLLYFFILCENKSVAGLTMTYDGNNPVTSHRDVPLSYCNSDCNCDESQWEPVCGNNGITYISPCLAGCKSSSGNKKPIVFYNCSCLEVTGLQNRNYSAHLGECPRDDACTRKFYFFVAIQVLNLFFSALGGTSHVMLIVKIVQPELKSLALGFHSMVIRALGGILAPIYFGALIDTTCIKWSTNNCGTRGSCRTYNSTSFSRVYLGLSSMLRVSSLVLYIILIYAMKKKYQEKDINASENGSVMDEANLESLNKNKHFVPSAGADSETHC

[3] = target: T3, Solute carrier organic anion transporter family member 1B3 (OATP1B3) (Homo sapiens, UniProt Q9NPD5); assay: as §1; type: functional, cell-based, Oocyte
T3 sequence (Q9NPD5 whole entry): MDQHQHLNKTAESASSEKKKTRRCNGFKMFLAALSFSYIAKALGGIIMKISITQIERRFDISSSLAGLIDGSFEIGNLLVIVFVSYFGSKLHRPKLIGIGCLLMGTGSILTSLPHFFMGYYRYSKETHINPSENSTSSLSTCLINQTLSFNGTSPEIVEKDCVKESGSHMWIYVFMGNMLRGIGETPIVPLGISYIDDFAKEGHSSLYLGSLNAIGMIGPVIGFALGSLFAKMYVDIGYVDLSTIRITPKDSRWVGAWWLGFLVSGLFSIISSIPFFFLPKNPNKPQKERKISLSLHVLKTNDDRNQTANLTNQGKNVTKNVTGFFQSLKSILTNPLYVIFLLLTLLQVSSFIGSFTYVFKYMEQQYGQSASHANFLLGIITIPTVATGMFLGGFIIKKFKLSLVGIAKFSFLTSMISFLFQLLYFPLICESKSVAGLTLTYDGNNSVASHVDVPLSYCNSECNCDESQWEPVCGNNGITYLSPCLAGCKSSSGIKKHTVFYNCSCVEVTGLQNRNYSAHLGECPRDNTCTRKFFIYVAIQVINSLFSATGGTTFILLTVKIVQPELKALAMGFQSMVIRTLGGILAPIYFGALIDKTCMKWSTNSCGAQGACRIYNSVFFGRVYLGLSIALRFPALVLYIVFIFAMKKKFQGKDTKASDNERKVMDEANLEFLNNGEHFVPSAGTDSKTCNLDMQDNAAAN

[4] = target: T4, Solute carrier organic anion transporter family member 1A1 (Rattus norvegicus, UniProt P46720); assay: as §1; type: functional, cell-based; settings: oocyte
T4 sequence (P46720 whole entry): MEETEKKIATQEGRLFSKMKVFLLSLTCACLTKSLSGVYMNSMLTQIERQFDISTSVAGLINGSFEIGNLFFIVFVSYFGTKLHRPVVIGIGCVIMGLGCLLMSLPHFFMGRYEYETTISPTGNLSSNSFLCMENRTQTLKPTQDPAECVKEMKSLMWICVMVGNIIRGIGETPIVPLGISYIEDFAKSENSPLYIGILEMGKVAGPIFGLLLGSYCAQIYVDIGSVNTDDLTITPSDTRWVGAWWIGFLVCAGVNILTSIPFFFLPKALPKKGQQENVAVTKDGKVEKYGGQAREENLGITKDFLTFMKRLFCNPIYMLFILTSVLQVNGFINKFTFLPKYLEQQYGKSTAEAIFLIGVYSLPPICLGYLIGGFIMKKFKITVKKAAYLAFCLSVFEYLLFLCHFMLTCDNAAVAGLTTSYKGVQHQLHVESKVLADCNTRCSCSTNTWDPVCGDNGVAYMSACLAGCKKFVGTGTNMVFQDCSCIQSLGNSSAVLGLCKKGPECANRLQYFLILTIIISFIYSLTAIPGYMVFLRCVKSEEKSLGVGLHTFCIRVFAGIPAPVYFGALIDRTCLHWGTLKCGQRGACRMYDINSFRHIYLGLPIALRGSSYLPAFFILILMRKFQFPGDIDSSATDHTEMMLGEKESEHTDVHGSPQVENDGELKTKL

[5] = target: T5, Solute carrier organic anion transporter family member 1A4 (Rattus norvegicus, UniProt O35913); assay: as §1; type: functional, cell-based; settings: oocyte
T5 sequence (O35913 whole entry): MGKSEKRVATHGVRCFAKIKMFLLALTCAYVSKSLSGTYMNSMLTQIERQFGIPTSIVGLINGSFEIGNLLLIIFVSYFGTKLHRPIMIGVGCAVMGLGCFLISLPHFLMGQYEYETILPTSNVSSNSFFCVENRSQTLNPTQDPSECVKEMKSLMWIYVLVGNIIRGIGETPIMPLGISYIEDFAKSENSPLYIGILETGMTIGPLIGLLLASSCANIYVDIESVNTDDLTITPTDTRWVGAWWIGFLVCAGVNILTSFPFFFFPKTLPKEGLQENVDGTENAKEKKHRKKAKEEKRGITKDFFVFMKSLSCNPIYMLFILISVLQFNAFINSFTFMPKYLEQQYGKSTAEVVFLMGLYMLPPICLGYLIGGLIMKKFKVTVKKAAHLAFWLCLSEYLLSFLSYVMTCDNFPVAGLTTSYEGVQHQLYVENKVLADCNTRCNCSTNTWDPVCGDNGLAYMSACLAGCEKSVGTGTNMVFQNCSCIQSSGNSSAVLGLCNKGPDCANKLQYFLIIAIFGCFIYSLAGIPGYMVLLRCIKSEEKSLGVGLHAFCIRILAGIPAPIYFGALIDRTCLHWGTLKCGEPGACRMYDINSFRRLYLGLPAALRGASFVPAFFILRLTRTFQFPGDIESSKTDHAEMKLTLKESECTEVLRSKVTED

[6] = target: T6, Solute carrier organic anion transporter family member 1B2 (Rattus norvegicus, UniProt Q9QZX8); assay: as §1; type: functional, cell-based; settings: oocyte
T6 sequence (Q9QZX8 whole entry): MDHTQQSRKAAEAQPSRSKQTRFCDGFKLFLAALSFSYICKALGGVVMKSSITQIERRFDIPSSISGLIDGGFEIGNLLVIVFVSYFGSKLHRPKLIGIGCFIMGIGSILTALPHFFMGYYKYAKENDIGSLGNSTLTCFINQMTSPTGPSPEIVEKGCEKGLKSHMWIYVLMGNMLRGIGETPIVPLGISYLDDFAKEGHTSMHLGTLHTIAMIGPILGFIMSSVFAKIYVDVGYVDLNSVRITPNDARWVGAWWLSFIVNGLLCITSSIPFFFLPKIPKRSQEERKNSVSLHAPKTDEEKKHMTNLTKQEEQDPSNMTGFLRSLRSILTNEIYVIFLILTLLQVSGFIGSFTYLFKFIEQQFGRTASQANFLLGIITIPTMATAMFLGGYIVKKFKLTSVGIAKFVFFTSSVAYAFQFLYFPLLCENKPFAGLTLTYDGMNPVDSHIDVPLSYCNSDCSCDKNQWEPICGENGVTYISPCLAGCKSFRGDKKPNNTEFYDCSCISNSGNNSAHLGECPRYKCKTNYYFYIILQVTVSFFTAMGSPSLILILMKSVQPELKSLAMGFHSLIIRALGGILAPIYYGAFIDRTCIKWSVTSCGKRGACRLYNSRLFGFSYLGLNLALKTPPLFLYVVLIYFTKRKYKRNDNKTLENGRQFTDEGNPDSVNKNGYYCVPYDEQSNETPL

[7] = target: T7, Solute carrier organic anion transporter family member 2B1 (Homo sapiens, UniProt O94956); assay: as §1; type: functional, cell-based; settings: oocyte
T7 sequence (O94956 whole entry): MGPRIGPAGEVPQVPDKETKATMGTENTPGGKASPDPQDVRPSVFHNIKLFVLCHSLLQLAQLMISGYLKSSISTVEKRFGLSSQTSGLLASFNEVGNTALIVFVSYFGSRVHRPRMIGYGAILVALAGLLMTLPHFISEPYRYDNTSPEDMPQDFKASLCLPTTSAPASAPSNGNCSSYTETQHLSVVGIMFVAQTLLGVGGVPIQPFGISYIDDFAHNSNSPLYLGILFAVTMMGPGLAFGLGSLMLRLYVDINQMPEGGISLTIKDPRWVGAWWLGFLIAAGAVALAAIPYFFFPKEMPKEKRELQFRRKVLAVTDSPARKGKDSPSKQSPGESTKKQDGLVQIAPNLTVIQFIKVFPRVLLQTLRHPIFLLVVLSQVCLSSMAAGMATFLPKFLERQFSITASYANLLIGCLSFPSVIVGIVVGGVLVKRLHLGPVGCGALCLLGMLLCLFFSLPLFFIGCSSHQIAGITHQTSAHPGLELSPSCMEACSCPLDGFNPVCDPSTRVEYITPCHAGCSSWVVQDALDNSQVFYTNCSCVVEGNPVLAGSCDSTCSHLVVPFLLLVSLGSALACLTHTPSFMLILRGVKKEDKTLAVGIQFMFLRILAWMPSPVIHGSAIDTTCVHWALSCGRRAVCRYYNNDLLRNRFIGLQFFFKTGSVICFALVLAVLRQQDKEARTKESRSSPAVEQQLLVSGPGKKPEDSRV

Question: For `C=C1C(=O)N[C@H](C)C(=O)N[C@@H](CC(C)C)C(=O)N[C@@H](C(=O)O)[C@H](C)C(=O)N[C@@H](CCCNC(=N)N)C(=O)N[C@@H](/C=C/C(C)=C/[C@H](C)[C@H](Cc2ccccc2)OC)[C@H](C)C(=O)N[C@@H](C(=O)O)CCC(=O)N1C` [MICROCYSTIN-LR] (R[Adda][d(γGlu)][NMeDha][dA]L[dAsp(3S-Me)]-OH; lactam N-7), which Km [1] is on record?
Answer: 20 µM

Question: What about the Km [2] of the same molecule?
Answer: 12.4 µM

Question: What about the Km [3] of the same molecule?
Answer: 12.4 µM

Question: And the Activity [4]?
Answer: is not a substrate [(-)]

Question: And the Activity [5]?
Answer: is not a substrate [(-)]

Question: And the Activity [6]?
Answer: substrate [(+)]

Question: And the Activity [7]?
Answer: is not a substrate [(-)]
